Type in all cases: cell-based
The target of one experiment is T1, human CRF2α receptor (Homo sapiens, UniProt Q13324).
T1 construct: expressed in transfected cells; host or cells: TeloHEAC
T1 sequence (Q13324 1-411): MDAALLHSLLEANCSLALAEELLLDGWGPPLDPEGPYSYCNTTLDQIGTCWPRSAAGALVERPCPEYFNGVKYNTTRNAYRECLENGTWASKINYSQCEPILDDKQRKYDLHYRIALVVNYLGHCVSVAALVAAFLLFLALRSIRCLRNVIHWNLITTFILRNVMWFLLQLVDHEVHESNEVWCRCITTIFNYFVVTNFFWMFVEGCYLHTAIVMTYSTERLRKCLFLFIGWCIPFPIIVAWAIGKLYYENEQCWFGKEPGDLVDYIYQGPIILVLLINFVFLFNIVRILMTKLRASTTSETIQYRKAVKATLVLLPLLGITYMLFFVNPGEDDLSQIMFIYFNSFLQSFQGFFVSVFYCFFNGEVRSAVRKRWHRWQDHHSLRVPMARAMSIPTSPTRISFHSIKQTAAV
As to the kind of experiment: cAMP agonism at human CRF2 α receptor in TeloHEAC cells (Example 7). The note with it: cAMP HTRF, TeloHEAC cells stably expressing human CRF2 α. Put shortly: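 Percent activation was referenced to 1000 nM UCN2 (100%), and EC50 values taken as concentrations giving half of maximal response. The read-out was a homogeneous time-resolved fluorescence cAMP kit, fluorescence ratio 665/620 nm. Thawed cells (2000/well) saw compound for 30 min at RT in buffer with 2 mM IBMX and 0%/0.1% HSA.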
(Time-resolved FRET reads energy transfer from a long-lived donor to a nearby acceptor.)

The next experiment relates to rat CRF2R α receptor. The experiment is described as follows: cAMP agonism at rat CRF2R α receptor in A7R5 rat aortic smooth muscle cells (Example 8). The note with it: cAMP HTRF, A7R5 rat aortic smooth muscle cell line, 0% HSA. Put shortly: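 Thawed cryopreserved A7R5 cells in HBSS/20 mM HEPES (0 or 0.1% HSA) with 2 mM IBMX, 2000 cells/well, were exposed to compound for 30 min at room temperature. cAMP was read by HTRF (665/620 nm ratio) after 1 h with lysis reagents. Activity was normalised to 1000 nM urocortin 2 as 100%, and EC50 was taken as the concentration giving 50% of maximal activation.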

For another experiment, the target named is T2, CRF1R receptor (Homo sapiens, UniProt P34998).
T2 construct: host or cells: CHO-K1 clone 2
T2 sequence (P34998 24-415): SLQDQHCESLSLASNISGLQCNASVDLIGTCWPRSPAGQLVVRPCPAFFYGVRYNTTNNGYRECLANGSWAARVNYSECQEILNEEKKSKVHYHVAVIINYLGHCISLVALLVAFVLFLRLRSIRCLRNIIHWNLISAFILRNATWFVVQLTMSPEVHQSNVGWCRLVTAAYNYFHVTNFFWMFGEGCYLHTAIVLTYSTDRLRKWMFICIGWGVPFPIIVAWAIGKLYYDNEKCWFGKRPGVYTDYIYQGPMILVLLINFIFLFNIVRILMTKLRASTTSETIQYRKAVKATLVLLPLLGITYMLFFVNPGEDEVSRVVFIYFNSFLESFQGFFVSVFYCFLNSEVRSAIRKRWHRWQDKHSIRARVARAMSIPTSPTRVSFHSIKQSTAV
The experiment is described as follows: cAMP activity at anti-target CRF1R, CRF1R-overexpression CHO cell line (Example 9). The following applies: CRF1R-overexpression CHO cell line; for EC50: 0% HSA; for Emax: read-out: Emax (%). Put shortly: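 cAMP accumulation was read by HTRF after 30 min at room temperature of compound treatment. Cells were cryopreserved CHO cells overexpressing CRF1R, plated at 2000/well in IBMX (2 mM)-containing HBSS/HEPES buffer with 0 or 0.1% HSA. Activity was normalized to 1000 nM UCN2 as 100%.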

[1] abbreviates: 0% HSA, read-out: EC50 [nM], 0% HSA.
[2] abbreviates: 0.1% HSA, read-out: EC50 [nM], 0.1% HSA.

Molecules are shown by their SMILES. Read-outs that look alike come from different tables or passages of the source. Starred links: 1 amine or outer side, 2 acyl side, 3 side chain; linkers in the order of their positions; H or OH if unused. Non-standard residues stand in square brackets, D forms with d. Residues, ends and D or L forms follow the SMILES beside them. Groups on a side chain read outwards from the residue. *: point of attachment. C18 diacid = O=C(O)CCCCCCCCCCCCCCCCC(=O)*; γGlu = O=C(O)[C@H](CCC(=O)[*:2])N[*:1]; AEEA = NCCOCCOCC(=O)O; Aib = CC(C)(N)C(=O)O

A word on the EC50: it is the concentration that produces a half-maximal response. As usually defined, the Emax is the greatest response seen or fitted, relative to the assay's reference.

Consider `CC[C@H](C)[C@H](N)C(=O)N[C@H](C(=O)N[C@@H](CC(C)C)C(=O)N[C@@H](CO)C(=O)N[C@@H](CC(C)C)C(=O)N[C@@H](CC(=O)O)C(=O)N[C@@H](C(=O)N1CCC[C@H]1C(=O)N[C@H](C(=O)NCC(=O)N[C@@H](CC(C)C)C(=O)N[C@@H](CCCCNC(=O)COCCOCCNC(=O)COCCOCCNC(=O)CC[C@H](NC(=O)CCCCCCCCCCCCCCCCC(=O)O)C(=O)O)C(=O)N[C@@H](CCC(N)=O)C(=O)N[C@H](C(=O)N[C@@H](CC(C)C)C(=O)N[C@@H](CC(C)C)C(=O)N[C@@H](CCCCN)C(=O)N[C@@H](CCC(N)=O)C(=O)N[C@@H](CCC(=O)O)C(=O)N[C@@H](CCCNC(=N)N)C(=O)N[C@@H](CCC(N)=O)C(=O)N[C@@H](CCCCN)C(=O)N[C@@H](CCCCN)C(=O)NC(C)(C)C(=O)N[C@@H](CCCNC(=N)N)C(=O)N[C@@H](CCC(=O)O)C(=O)N[C@@H](CCC(N)=O)C(=O)N[C@@H](C)C(=O)N[C@@H](CCC(=O)O)C(=O)N[C@H](C(=O)N[C@@H](CC(N)=O)C(=O)N[C@@H](CCCCN)C(=O)N[C@@H](CCC(N)=O)C(=O)N[C@H](C(=O)N[C@@H](CC(C)C)C(=O)N[C@@H](C)C(=O)N[C@@H](CCC(N)=O)C(=O)N[C@H](C(N)=O)C(C)C)[C@@H](C)CC)[C@@H](C)O)[C@@H](C)CC)[C@@H](C)CC)C(C)C)C(C)C` [compound 147] (H-IVLSLD[dV]PIGLK([AEEA-AEEA-γGlu-C18 diacid])QILLKQERQKK[Aib]REQAETNKQILAQV-NH2; N-terminus assumed), for which the EC50 was 0.18 nM at human CRF2α receptor (setting [1]), 8.17 nM on human CRF2α receptor (setting [2]), 2.53 nM in the experiment on rat CRF2R α receptor and more than 1000 nM at CRF1R receptor. For the same molecule, the Emax at CRF1R receptor amounted to 4.54%.
In the case of `CC[C@H](C)[C@H](N)C(=O)N[C@H](C(=O)N[C@@H](CC(C)C)C(=O)N[C@@H](CO)C(=O)N[C@@H](CC(C)C)C(=O)N[C@@H](CC(=O)O)C(=O)N[C@@H](C(=O)N1CCC[C@H]1C(=O)N[C@H](C(=O)NCC(=O)N[C@@H](CC(C)C)C(=O)N[C@@H](CCCCNC(=O)COCCOCCNC(=O)COCCOCCNC(=O)CC[C@H](NC(=O)CCCCCCCCCCCCCCCCC(=O)O)C(=O)O)C(=O)N[C@@H](CCC(N)=O)C(=O)N[C@H](C(=O)N[C@@H](CC(C)C)C(=O)N[C@@H](CC(C)C)C(=O)N[C@@H](CCCCN)C(=O)N[C@@H](CCC(N)=O)C(=O)N[C@@H](CCC(=O)O)C(=O)N[C@@H](CCCNC(=N)N)C(=O)N[C@@H](CCC(N)=O)C(=O)N[C@@H](CCCCN)C(=O)N[C@@H](CCCCN)C(=O)NC(C)(C)C(=O)N[C@@H](CCCNC(=N)N)C(=O)N[C@@H](CCC(=O)O)C(=O)N[C@@H](CCC(N)=O)C(=O)N[C@@H](C)C(=O)N[C@@H](CCC(=O)O)C(=O)N[C@@H](CCCCN)C(=O)N[C@@H](CC(N)=O)C(=O)N[C@@H](CCCCN)C(=O)N[C@@H](CCCNC(=N)N)C(=O)N[C@H](C(=O)N[C@@H](CC(C)C)C(=O)N[C@@H](CCC(=O)O)C(=O)N[C@@H](CCCNC(=N)N)C(=O)N[C@H](C(N)=O)C(C)C)[C@@H](C)CC)[C@@H](C)CC)[C@@H](C)CC)C(C)C)C(C)C` [compound 151] (H-IVLSLD[dV]PIGLK([AEEA-AEEA-γGlu-C18 diacid])QILLKQERQKK[Aib]REQAEKNKRILERV-NH2; N-terminus assumed), the EC50 was 0.08 nM at human CRF2α receptor (setting [1]), 3.87 nM at human CRF2α receptor (setting [2]), 0.49 nM in the experiment on rat CRF2R α receptor and more than 1000 nM at CRF1R receptor. For the same molecule, the Emax at CRF1R receptor worked out at 9.07%.

The values above are taken from patent US12679878B2, “CRF2 receptor agonists and their use in therapy” (SANOFI, priority 2020, dated 2026).
